Source: patent publication US6706293B1, “Pharmaceutical composition capable of regulating the expression of adhesion molecules” (Especialidades Farmaceuticas Centrum, S.A., priority 1999, dated 2004)

Columns and labels:
Female WISTAR rats = assay: Anti-inflammatory activity in acute and chronic phase in rats (adjuvant + carrageenin foot volume, method of Mizushima); assay type: in vivo, rat; conditions: oral, Phenylbutazone 80 mg/Kg, extract 1.25 g per kg
Experimental: A study of the anti-inflammatory activity has been made in acute and chronic phase in rats. The method used was as described by Mizushima. The reference medicament (Phenylbutizene, dose 80 mg/Kg) and the products of the study (dose equivalent to 1.25 g extract per kg weight of animal) were dissolved in a solution of 1% of CMC (carboxymethylcellulose) in distillated water (w/v) and Tween 80: distillated water (0.2:3.3-v/v), in order to be administrated orally. Six days after inoculation, by intradermal route of 0.1 mL of the complete adjuvant Freund (DIFCO) in the basal part of the tail, was injected 0.1 mL of a suspension of carrageenin type IV 2% (w/v) at the aponeurosis of the left back foot. The volume of the foot of the animal was measured, using a water pletismometer, immediately before the carrageenin injection (basal volume) and afterwards at 3, 5, and 7 hours (acute phase of the inflammation) and at 24, 48, 72, and 96 hours (chronic phase of inflammation). The products of the study, the phenylbutazone, and the carrier were administrated, orally and in portions of 6 animals, 1 hour before the carrageenin injection and at 24, 48 and 72 hours. The percentage of inhibition of the inflammation was calculated by comparing the increase of the volume of the animal foot in respect of its basal volume, for each group of animals and in relation to the control group. The control group was given the carrier of phenylbutazone and the products of the study. The statistical significance was evaluated via the T Student test.

CD11b = assay: In vitro expression of adhesion molecules in peripheral blood mononuclear cells (flow cytometry); assay type: cell-based, human; conditions: PBMNc of 10 healthy individuals, 48 hours culture; PHA 10 μg/ml, Anapsos 150 μg/ml; CONTROL 20%
Experimental: (§1) Peripheral blood was extracted from 10 healthy individuals and the mononuclear cells was separated via Fycoll-Hypaque density gradient centrifugation. The cells was cultivated in plane bottom microtiter plates, at a titer of 1 million/ml for 48 hours in a CO2 incubator, with phytohaemagglutinin (PHA) at concentrations of 0, 0.5, 2, 5 and 10 μg/ml and/or with Anapsos at concentrations between 0 to 5000 μg/ml. Finalized the culturing, the lymphocytes was analyzed by flow cytometry. The expression of determined adhesion molecules (CD11a, CD11b, CD18, CD54) was studied in relation to the different conditions of stimuli. En parallel to the culture as described above, a culture for 5 days was made under the same conditions of stimuli as above. Tritium thymidine was added 16 hours before finalizing the culture. Terminated the culture, the cells was washed with the Harvester and flashing liquid was incorporated into the cells. The cellular incorporation of tritium thymidine was measured via a β counter. During the culturing, the cells were photographed via an inverted microscope.

CD18 = assay: as above; assay type: cell-based, human; conditions: PBMNc of 10 healthy individuals, 48 hours culture; PHA 10 μg/ml, Anapsos 150 μg/ml; CONTROL 20%
Experimental: as §1

CD11a = assay: as above; assay type: cell-based, human; conditions: PBMNc of 10 healthy individuals, 48 hours culture; PHA 10 μg/ml, Anapsos 150 μg/ml; CONTROL 17%
Experimental: as §1

CD54 = assay: as above; assay type: cell-based, human; conditions: PBMNc of 10 healthy individuals, 48 hours culture; PHA 10 μg/ml, Anapsos 150 μg/ml; CONTROL 2%
Experimental: as §1

| Compound | % INHIBITION OF THE INFLAMMATION 3 h (Female WISTAR rats; 3 h after carrageenin (acute phase)) | % INHIBITION OF THE INFLAMMATION 5 h (Female WISTAR rats; 5 h after carrageenin (acute phase)) | % INHIBITION OF THE INFLAMMATION 7 h (Female WISTAR rats; 7 h after carrageenin (acute phase)) | % INHIBITION OF THE INFLAMMATION 24 h (Female WISTAR rats; 24 h after carrageenin (chronic phase)) | % INHIBITION OF THE INFLAMMATION 48 h (Female WISTAR rats; 48 h after carrageenin (chronic phase)) | % INHIBITION OF THE INFLAMMATION 72 h (Female WISTAR rats; 72 h after carrageenin (chronic phase)) | % INHIBITION OF THE INFLAMMATION 96 h (Female WISTAR rats; 96 h after carrageenin (chronic phase)) | Expression, in vitro, of CD11b (CD11b) | Expression, in vitro, of CD18 (CD18) | Expression, in vitro, of CD11a (CD11a) | Expression, in vitro, of CD54 (CD54) |
| --- | --- | --- | --- | --- | --- | --- | --- | --- | --- | --- | --- |
| CCCCC1C(=O)N(c2ccccc2)N(c2ccccc2)C1=O [Phenylbutazone] | 41% | 27% | 21% | 36% | 60% | 56% | 40% | – | – | – | – |
| phytohaemagglutinin [PHA] | – | – | – | – | – | – | – | 35% | 27% | 22% | 9% |
